In patent US20090005398A1, “Methods For The Treatment of Central Nervous System Tumors” (priority 2007, published 2009):

Assays:
SW1088 [1] = assay: Multiple cell line screen, cell proliferation; assay type: cell-based; conditions: Homo sapiens, SW1088, 72 h; astrocytoma; nuclei count, 3 days
Method: (§1) Growth properties for multiple cell lines were used to determine two seeding densities for each cell line that would be used in the screen. Cell lines were thawed and grown to 70-80% confluency before being used in the assay. On day −1, cells were seeded at 2 densities in 384-well plates and incubated at 37° C. overnight. Stock compound plates were prepared in advance which contained dimethyl sulfoxide (DMSO) alone and a 9-point half-log decreasing dose range of the compound in DMSO. These plates were stored at −80° C. and each plate was only thawed once and used. On day 0, the main assay plates received compound or DMSO via a sonic delivery system (ECHO). The highest final concentration of compound of the dose range in the culture plates was 10 uM. These plates were cultured at 37° C. for 3 days.
(§2) On day 3, the compound treated plates were stained and fixed to measure proliferation, apoptosis, and mitotic index. A nuclear stain was used to identify cells in the wells. By counting the number of nuclei, the proliferation index of compound treated groups were calculated as a percentage relative to the DMSO control, which was set to 100%. The IC50 values were calculated using model 205 in ExcelFit.

SNB-19 [2] = assay: Multiple cell line screen, cell proliferation; assay type: cell-based; conditions: Homo sapiens, SNB-19, 72 h; glioblastoma; nuclei count, 3 days
Method: as §1, §2

U-87MG = assay: Multiple cell line screen, cell proliferation; assay type: cell-based; conditions: Homo sapiens, 72 h, glioblastoma, astrocytoma, nuclei count, 3 days
Method: as §1, §2

CCF-SSTG1 = assay: Multiple cell line screen, cell proliferation; assay type: cell-based; conditions: 72 h; astrocytoma; nuclei count, 3 days
Method: as §1, §2

SW1088 [3] = assay: Washout assay, recovery of cell growth (MTT); assay type: cell-based; conditions: SW1088, astrocytoma; 3 days exposure then washout
Method: (§3) Seven glioma cell lines that can double at least once over three days were thawed and grown to 70-80% confluency before being used in the assay. On day 1, for each cell line, 2-3×10^5 cells were seeded into each well in 6-well cell culture plates and incubated at 37° C. overnight. […] The plates were incubated at 37° C. for 3 days.
(§4) On day 5, the compound was efficiently washed four times with culture medium supplemented with 20% fetal bovine serum (FBS) and then washed once in buffered saline solution (PBS). The cells were trypsinized. For each of the concentrations, compound-treated cell lines were plated into five 96-well plates at 5000 cells per well. For the next 4 consecutive days, one plate of the cells was taken out of the incubator and cell proliferation was measured by MTT ELISA assay.
(§5) The washout assay is designed to follow the cells' recovery from exposure to the compound. Each glioma cell line was assayed at least twice. The criteria for evaluating sensitivity or resistance was Last Growth Back Concentration (LGC), if LGC<=30 nM, the cell line is considered sensitive; if LGC>=1 uM, it is considered resistant; if LGC is in between these two concentrations, the cell line is considered intermediate. Based on criteria set, all the glioma cell lines appeared to be sensitive to the compound of Example 1.

H4 = assay: Washout assay, recovery of cell growth (MTT); assay type: cell-based; conditions: H4, glioma; 3 days exposure then washout
Method: as §3, §4, §5

SNB-19 [4] = assay: Washout assay, recovery of cell growth (MTT); assay type: cell-based; conditions: SNB-19, glioblastoma; 3 days exposure then washout
Method: as §3, §4, §5

A172 = assay: Washout assay, recovery of cell growth (MTT); assay type: cell-based; conditions: A172, glioblastoma; 3 days exposure then washout
Method: as §3, §4, §5

SF-295 = assay: Washout assay, recovery of cell growth (MTT); assay type: cell-based; conditions: SF-295, glioblastoma; 3 days exposure then washout
Method: as §3, §4, §5

SF-539 = assay: Washout assay, recovery of cell growth (MTT); assay type: cell-based; conditions: SF-539, astrocytoma; 3 days exposure then washout
Method: as §3, §4, §5

SF-268 = assay: Washout assay, recovery of cell growth (MTT); assay type: cell-based; conditions: SF-268, glioblastoma; 3 days exposure then washout
Method: as §3, §4, §5

[5] = Protein binding to human plasma proteins by equilibrium dialysis; assay type: in vitro ADME; conditions: pH 7.4, equilibrium dialysis 6 h, 37° C.
Method: 96 Well Plate (High Throughput Dialysis): Stock solution of compound was spiked into human plasma at a target concentration of 2000 ng/mL. The mixture was inverted gently several times to insure homogeneity and triplicate 50 μL aliquots were collected to verify initial concentrations. Following assembly of dialysis plate (HTDialysis membrane strips, molecular weight cut off limit of 12,000-14,000 daltons), spiked plasma (150 μL) was placed in the donor compartment of the well and Phosphate Buffered Saline pH 7.4 (150 μL) in the receiver compartment. Eight wells were set up per compound and plasma type. Plate was placed in a 37° C. incubator on a plate shaker. Following the 6 h incubation period, the plate was removed. Single 50 μL aliquots from each donor and receiver compartment (per well) were analyzed.
Sample analysis was by LC/MS/MS (results reported as Drug Peak Area/Internal Standard Peak Area ratios). Protein binding assay can also be performed using dialysis cells instead of HT Dialysis 96 well plates. In Table 1, % Protein Binding, +=>98%; ++=95-98%: +++=<95%.

C[C@@H](Oc1cc(-n2cnc3ccc(CN4CCN(C)CC4)cc32)sc1C(N)=O)c1ccccc1C(F)(F)F [Example 1, 5-{6-[(4-Methylpiperazin-1-yl)methyl]-1H-benzimidazol-1-yl}-3-{(1R)-1-[2-(trifluoromethyl)phenyl]ethoxy}thiophene-2-carboxamide]
IC50 (SW1088 [1]): < 0.05 µM
IC50 (SNB-19 [2]): < 0.05 µM
IC50 (U-87MG): < 0.05 µM
IC50 (CCF-SSTG1): < 0.05 µM
LGC (Last Growth Back Concentration) (SW1088 [3]): 10 nM
LGC (Last Growth Back Concentration) (H4): 10 nM
LGC (Last Growth Back Concentration) (SNB-19 [4]): 10 nM
LGC (Last Growth Back Concentration) (A172): <10 nM
LGC (Last Growth Back Concentration) (SF-295): 10 nM
LGC (Last Growth Back Concentration) (SF-539): 30 nM
LGC (Last Growth Back Concentration) (SF-268): 10 nM
fraction unbound at 6 h, 2000 ng/mL [5]: > 0.05
